Values quoted from earlier work in patent US7785578B2, “Non-invasive ocular drug delivery” (Aciont, Inc., priority 2002, dated 2010).

Settings: following a 5 mg peribulbar injection; comparable to a high oral dose (approximately 7.5 mg)

## C[C@@H]1C[C@H]2[C@@H]3CCC4=CC(=O)C=C[C@]4(C)[C@@]3(F)[C@@H](O)C[C@]2(C)[C@@]1(O)C(=O)CO [dexamethasone]
  systemic levels in plasma: 60 ng/mL
